Several values for one entry are separate records, joined by “and”; a condition that tells them apart may be missing. Identical values can stand only once.
What was measured:
Experiment in all cases: normalised viability (% of control), CellTiter-Blue; higher = more viable cells (about 100 = DMSO control)
Conditions in all cases: incubation time: 72 h
[1] = system: BT-474
Method in brief: (§1)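 Breast cancer cell lines in 20 µl suspension were seeded onto 384-well plates pre-loaded with compound dissolved in 5 µl medium, then incubated 72 h. CellTiter-Blue reagent (2.5 µl) was added for 2 h at 37 °C and fluorescence read at 560/590 nm. Each plate was normalised to vehicle (100) and a positive kill control (0), with Z'-factor quality control. The value is normalised viability at one listed concentration of the series.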

[2] = system: BT-549
Method in brief: as §1

[3] = system: CAL-120
Method in brief: as §1

[4] = system: CAL-148
Method in brief: as §1

[5] = system: CAL-51
Method in brief: as §1

[6] = system: CAL-85-1
Method in brief: as §1

[7] = system: DU-4475
Method in brief: as §1

[8] = system: HCC1143
Method in brief: as §1

[9] = system: HCC1937
Method in brief: as §1

[10] = system: HDQ-P1
Method in brief: as §1

[11] = system: Hs578T
Method in brief: as §1

[12] = system: MDA-MB-231
Method in brief: as §1

[13] = system: MDA-MB-436
Method in brief: as §1

[14] = system: MDA-MB-468
Method in brief: as §1

[15] = system: MFM-223
Method in brief: as §1

[16] = system: SK-BR-3
Method in brief: as §1

C[C@]12C=CC(=O)C=C1CC[C@@H]1[C@@H]2C(=O)C[C@@]2(C)[C@H]1CC[C@]2(O)C(=O)CO [Prednisone]
normalised viability [%]
Conditions	3 nM	10 nM	30 nM	100 nM	1000 nM	10000 nM
[1]	–	133	–	–	109	111
[2]	–	96.7	–	–	107	108
[3]	–	79.9	–	–	79.3	96.3
[4]	94.8	–	97.4	104	–	–
[5]	104	–	98.3	103	–	–
[6]	95.8	–	102	90.9	–	–
[7]	90.2	–	94.9	88.4	–	–
[8]	–	91	–	–	89.1	86.8
[9]	–	95.7	–	–	105	98.9
[10]	98.3	–	110	114	–	–
[11]	–	121	–	–	108	105
[12]	–	97	–	–	101	108
[13]	–	91.3	–	–	70.5	109
[14]	–	98.6	–	–	104	98
[15]	–	91.7	–	–	89.7	94.8
[16]	–	101	–	–	111	113

O=NN(CCCl)C(=O)NC1CCCCC1 [Lomustine]
normalised viability [%]
Conditions	3 nM	10 nM	30 nM	100 nM	1000 nM	10000 nM
[1]	–	108	–	–	114	128
[2]	–	84.4	–	–	86.6	84.6
[3]	–	93.9	–	–	91.3	105
[4]	100	–	113	99.4	–	–
[5]	110	–	109	110	–	–
[6]	104	–	88	104	–	–
[7]	117	–	98.7	88.2	–	–
[8]	–	89.3	–	–	90.5	89.5
[9]	–	92	–	–	90.4	96
[10]	117	–	98.7	105	–	–
[11]	–	105	–	–	98.1	98.7
[12]	–	110	–	–	100	95.9
[13]	–	108	–	–	95.5	97.7
[14]	–	100	–	–	98.1	95.6
[15]	–	84.7	–	–	87.9	54.7
[16]	–	97.3	–	–	125	96

CCCCCOC(=O)Nc1nc(=O)n([C@@H]2O[C@H](C)[C@@H](O)[C@H]2O)cc1F [Capecitabine]
Conditions	normalised viability
[1], 10 nM	124% and 104%
[1], 1000 nM	120% and 108%
[1], 10000 nM	124% and 105%
[2], 10 nM	91.7% and 86.6%
[2], 1000 nM	96% and 104%
[3], 10 nM	82.6% and 98.9%
[3], 1000 nM	83.9% and 100%
[3], 10000 nM	91.1% and 96.5%
[4], 3 nM	91.9% and 96%
[4], 30 nM	89.1% and 88.1%
[4], 100 nM	92.8% and 107%
[5], 3 nM	113% and 108%
[5], 30 nM	105% and 98.2%
[5], 100 nM	103%
[6], 3 nM	87.5% and 102%
[6], 30 nM	88.5% and 90.9%
[6], 100 nM	91.8% and 103%
[7], 3 nM	91.8% and 93.5%
[7], 30 nM	83.6% and 88.7%
[7], 100 nM	90.9% and 114%
[8], 10 nM	77.9% and 97.9%
[8], 1000 nM	89.9% and 103%
[8], 10000 nM	84.2% and 91.9%
[9], 10 nM	80.9% and 86%
[9], 1000 nM	88% and 75.8%
[9], 10000 nM	87.6% and 85.8%
[10], 3 nM	94.8% and 95.5%
[10], 30 nM	91.5%
[10], 100 nM	102% and 94.6%
[11], 10 nM	105% and 116%
[11], 1000 nM	101% and 104%
[11], 10000 nM	107% and 93.6%
[12], 10 nM	94.2% and 74.2%
[12], 1000 nM	108% and 87%
[12], 10000 nM	110% and 97.4%
[13], 1000 nM	72.3% and 89%
[13], 10000 nM	83.6% and 89%
[14], 10 nM	106% and 131%
[14], 1000 nM	108% and 104%
[14], 10000 nM	104%
[15], 10 nM	83.5% and 100%
[15], 1000 nM	93.6% and 100%
[15], 10000 nM	90.6% and 99.6%
[16], 10 nM	107% and 86.8%
[16], 1000 nM	108% and 93.6%
[16], 10000 nM	78.4% and 85.5%

C[C@@H]1C[C@H]2[C@@H]3CCC4=CC(=O)C=C[C@]4(C)[C@@]3(F)[C@@H](O)C[C@]2(C)[C@@]1(O)C(=O)CO [Dexamethasone]
normalised viability [%]
Conditions	3 nM	10 nM	30 nM	100 nM	1000 nM	10000 nM
[1]	–	110	–	–	119	118
[2]	–	93.6	–	–	90.3	93.5
[3]	–	76	–	–	77	80.1
[4]	93.6	–	108	99.2	–	–
[5]	106	–	91.9	95.6	–	–
[6]	102	–	93.1	110	–	–
[7]	90	–	86.9	98.3	–	–
[8]	–	76.5	–	–	89.1	81.2
[9]	–	82.5	–	–	100	78.9
[10]	111	–	100	108	–	–
[11]	–	120	–	–	122	98
[12]	–	125	–	–	111	146
[13]	–	127	–	–	89.6	104
[14]	–	114	–	–	112	100
[15]	–	93.4	–	–	94.2	87.2
[16]	–	99.2	–	–	86.7	93

CCN(CC)CCOc1ccc(C(=C(Cl)c2ccccc2)c2ccccc2)cc1 [Clomifene]
normalised viability [%]
Conditions	3 nM	10 nM	30 nM	100 nM	1000 nM	10000 nM
[1]	–	118	–	–	111	17.1
[2]	–	109	–	–	96.6	36
[3]	–	93.4	–	–	95.3	18
[4]	88.2	–	94.8	101	–	–
[5]	95.6	–	90.3	98.9	–	–
[6]	91.3	–	92.4	91.2	–	–
[7]	101	–	98.4	111	–	–
[8]	–	86.2	–	–	84	85.2
[9]	–	115	–	–	117	55.6
[10]	133	–	130	114	–	–
[11]	–	105	–	–	121	59.8
[12]	–	98.8	–	–	93.8	14.1
[13]	–	119	–	–	109	27.5
[14]	–	98.2	–	–	98.1	6.16
[15]	–	102	–	–	106	28.3
[16]	–	105	–	–	105	67.2
